Patent publication US12291508B2, “Hydrazide containing nuclear transport modulators and uses thereof” (Karyopharm Therapeutics Inc., priority 2011, dated 2025)
Where a name gives a salt, the structure may show the parent alone.

Key:
[1] = target: T1, CRM1-mediated nuclear export (Homo sapiens, UniProt O14980); test: RevGFP assay, inhibition of nuclear export; type: cell-based; settings: U2OS-RevGFP cells, about 1 hr incubation; read-out: Rev Export
T1 construct: endogenous in cells; host or cells: U2OS-RevGFP cells
Experimental: The ability of exemplary compounds of the invention to inhibit CRM1-mediated nuclear export was assessed in a RevGFP assay. Rev is a protein from human immunodeficiency virus type 1 (HIV-1) and contains a nuclear export signal (NES) in its C-terminal domain and a nuclear localization signal (NLS) in its N-terminal domain. Nuclear export of Rev protein is dependent on the classical NES/CRM1 pathway (Neville et al. 1997).
In this assay, U2OS-RevGFP cells were seeded onto clear-bottomed, black, 384-well plates the day before the experiment. Compounds were serially diluted 1:2 in DMEM, starting from 40 μM in a separate, 384-well plate, and then transferred onto the cells. The cells were incubated with compound for about 1 hr before fixation with 3.7% formaldehyde and nuclei staining with Hoechst 33258. The amount of GFP in cell nuclei was measured and the IC50 of each compound was determined (Kau et al. 2003).

[2] = test system: MM.1S multiple myeloma cell line; test: CellTiter 96 AQueous One Solution cell proliferation assay, MM.1S; type: cell-based; settings: Homo sapiens, MM1.S, 72 h of treatment, read-out: Cytotoxicity Assay
Excerpt: The CellTiter 96® AQueous One Solution cell proliferation assay (Promega) was used on MM.1S multiple myeloma cell line to study the cytotoxic and cytostatic properties of the compounds. The assay is based on the cleavage of the tetrazolium salt, MTS, in the presence of an electron-coupling reagent PES (phenazine ethosulfate). The MTS tetrazolium compound is bioreduced by cells into a colored formazan product that is soluble in tissue culture medium. This conversion is presumably accomplished by NADPH or NADH produced by dehydrogenase enzymes in metabolically active cells. Assays are performed by adding a small amount of the CellTiter 96® AQueous One solution reagent directly to culture wells, incubating for 1-4 hours and then recording the absorbance at 490 nm with a 96-well plate reader.
The cells were seeded at 5×10^3 to 1.5×10^4 cells in each well of a 96-well plate in 100 μL of fresh culture medium and adherent cells were allowed to attach overnight. The stock solutions of the compounds were diluted in cell culture medium to obtain eight concentrations of each drug, ranging from 1 nM to 30 μM and DMSO at less than 1% v/v was used as a negative control. The resulting drug solutions were transferred onto the cells. After 72 h of treatment, 20 μl of CellTiter 96® AQueous reagent was added into each well of the 96-well assay plates and the plate was incubated at 37° C. for 1-4 hours in a humidified, 5% CO2 atmosphere. Then the absorbance of each well was recorded at 490 nm using a 96-well plate reader. In most cases, the assay was performed in triplicate and the results were presented as half maximal inhibitory concentration (IC50). Optical density versus compound concentration was plotted and analyzed using non-linear regression equations (IDBS XLfit) and the IC50 for each compound was calculated.

[3] = Pharmacokinetic (PK) assay, plasma AUC in mice; type: in vivo; settings: 10 mg/kg po; for AUC(0-inf): mouse, plasma
Experimental: AUC. Blood was collected from mice (N=3) to contribute to the total of 10 time points (pre-dose, 5 min, 15 min, 30 min, 1 hour, 2 hours, 4 hours, 8 hours, 12 hours and 24 hours post dose). Mice were bled on a rotating basis, each mouse contributing 3 time points to the blood collection. At the designated time points, animals were anaesthetized under isoflurane, and approximately 110 μL of blood per time point was collected via retro-orbital puncture into pre-cooled K2EDTA (anti-coagulant) tubes. Blood samples were put on wet ice and centrifuged (2000 g, 5 min at 4° C.) to obtain plasma within 30 minutes of sample collection. All samples were stored frozen at approximately −80° C. until analysis. Prior to analysis, samples were mixed with internal standard (dexamethasone) in acetonitrile, vortexed, centrifuged, and supernatant was injected for analysis. Concentration of compounds in plasma was determined using LC-MS-MS instrumentation (API 4000, Triple Quadruple with electrospray ionization; Acuity Ultra Performance Liquid Chromatography column C18, with MeOH and formic acid as organic solvents). AUC values were calculated using WinNonlin Professional 6.2 software package, non-compartmental pharmacokinetic model NCA200.

[4] = Brain to Plasma (B:P) ratio in mice; type: in vivo; settings: 10 mg/kg po, 2 hours post-dose; for Kp at 2 h: mouse, brain/plasma
Experimental: Brain to Plasma (B:P) Ratio. […] Following collection, brain tissue was rinsed with cold saline, dried on filter paper, weighed and snap-frozen by placing on dry ice. All samples were stored frozen at approximately −80° C. until analysis. […] Plasma samples were treated with the identical method (except homogenization step) and the concentration of compound in each matrix was calculated based on generated standard curves.

T1 sequence (O14980 whole entry): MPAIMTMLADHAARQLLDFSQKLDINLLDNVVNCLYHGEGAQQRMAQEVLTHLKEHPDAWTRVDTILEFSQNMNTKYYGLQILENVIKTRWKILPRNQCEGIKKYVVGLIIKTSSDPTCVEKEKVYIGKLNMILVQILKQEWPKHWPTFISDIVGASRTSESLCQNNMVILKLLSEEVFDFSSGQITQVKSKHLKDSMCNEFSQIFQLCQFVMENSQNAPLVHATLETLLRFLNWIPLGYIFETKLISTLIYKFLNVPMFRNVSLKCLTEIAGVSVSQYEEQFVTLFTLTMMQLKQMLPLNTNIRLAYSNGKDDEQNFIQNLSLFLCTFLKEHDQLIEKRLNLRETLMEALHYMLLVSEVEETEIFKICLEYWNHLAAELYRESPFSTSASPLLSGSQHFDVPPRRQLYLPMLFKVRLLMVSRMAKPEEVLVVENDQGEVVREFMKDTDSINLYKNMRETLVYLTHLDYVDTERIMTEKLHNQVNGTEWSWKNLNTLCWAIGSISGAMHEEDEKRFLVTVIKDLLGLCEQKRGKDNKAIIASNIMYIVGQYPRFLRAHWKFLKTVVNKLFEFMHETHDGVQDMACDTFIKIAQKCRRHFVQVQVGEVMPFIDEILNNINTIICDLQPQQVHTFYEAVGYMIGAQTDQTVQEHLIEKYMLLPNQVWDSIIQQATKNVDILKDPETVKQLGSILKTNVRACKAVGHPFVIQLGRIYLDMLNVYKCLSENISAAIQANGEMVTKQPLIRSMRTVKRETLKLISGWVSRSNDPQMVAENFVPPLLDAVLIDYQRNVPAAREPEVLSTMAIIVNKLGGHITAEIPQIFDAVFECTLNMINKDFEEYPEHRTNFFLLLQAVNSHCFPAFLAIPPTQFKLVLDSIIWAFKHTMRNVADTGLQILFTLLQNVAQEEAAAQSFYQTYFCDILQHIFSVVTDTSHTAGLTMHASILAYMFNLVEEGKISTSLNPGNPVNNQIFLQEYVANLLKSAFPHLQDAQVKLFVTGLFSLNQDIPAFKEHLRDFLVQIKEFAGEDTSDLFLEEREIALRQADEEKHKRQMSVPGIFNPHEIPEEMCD

SMILES	IC50 [2]	also measured
O=C(/C=C\n1cnc(-c2cc(C(F)(F)F)cc(C(F)(F)F)c2)n1)NNc1cc(Cl)ncn1 [Compound I-12, (Z)-3-(3-(3,5-bis(trifluoromethyl)phenyl)-1H-1,2,4-triazol-1-yl)-N′-(6-chloropyrimidin-4-yl)acrylohydrazide]	≤ 1 µM	IC50 [1]: ≤ 1 µM; AUC(0-inf) [3]: 24900 ng·h/mL; Kp at 2 h [4]: 0.13
O=C(/C=C\n1cnc(-c2cc(C(F)(F)F)c(Cl)c(C(F)(F)F)c2)n1)NNc1cnccn1 [Compound I-24, (Z)-3-(3-(4-chloro-3,5-bis(trifluoromethyl)phenyl)-1H-1,2,4-triazol-1-yl)-N′-(pyrazin-2-yl)acrylohydrazide]	≤ 1 µM	AUC(0-inf) [3]: 3350 ng·h/mL; Kp at 2 h [4]: 0.7
CCN1CCN(NC(=O)/C=C\n2cnc(-c3cc(C(F)(F)F)cc(C(F)(F)F)c3)n2)CC1 [Compound I-21, (Z)-3-(3-(3,5-bis(trifluoromethyl)phenyl)-1H-1,2,4-triazol-1-yl)-N-(4-ethylpiperazin-1-yl)acrylamide]	≤ 1 µM	
CN(NC(=O)/C=C\n1cnc(-c2cc(C(F)(F)F)cc(C(F)(F)F)c2)n1)c1cnccn1 [Compound I-8, (Z)-3-(3-(3,5-bis(trifluoromethyl)phenyl)-1H-1,2,4-triazol-1-yl)-N′-methyl-N′-(pyrazin-2-yl)acrylohydrazide]	≤ 1 µM	IC50 [1]: ≤ 1 µM; AUC(0-inf) [3]: 4600 ng·h/mL; Kp at 2 h [4]: 2.1
O=C(/C=C\n1cnc(-c2cc(C(F)(F)F)cc(C(F)(F)F)c2)n1)NNc1ccncn1 [Compound I-23, (Z)-3-(3-(3,5-bis(trifluoromethyl)phenyl)-1H-1,2,4-triazol-1-yl)-N′-(pyrimidin-4-yl)acrylohydrazide]	≤ 1 µM	
O=C(/C=C\n1cnc(-c2cc(C(F)(F)F)cc(C(F)(F)F)c2)n1)NNc1ccncc1 [Compound I-19, (Z)-3-(3-(3,5-bis(trifluoromethyl)phenyl)-1H-1,2,4-triazol-1-yl)-N′-(pyridin-4-yl) acrylohydrazide hydrochloride]	≤ 1 µM	AUC(0-inf) [3]: 4020 ng·h/mL; Kp at 2 h [4]: 0.2
O=C(/C=C\n1cnc(-c2cc(C(F)(F)F)cc(C(F)(F)F)c2)n1)NN1CC(O)C1 [Compound I-26, (Z)-3-(3-(3,5-bis(trifluoromethyl)phenyl)-1H-1,2,4-triazol-1-yl)-N-(3-hydroxyazetidin-1-yl)acrylamide]	≤ 1 µM	
CC(C)OC(=O)/C=C\n1cnc(-c2cc(OC(C)C)cc(C(F)(F)F)c2)n1 [Compound X-2, reference compound]	≤ 1 µM	IC50 [1]: ≤ 1 µM
O=C(/C=C\n1cnc(-c2cc(C(F)(F)F)cc(C(F)(F)F)c2)n1)NN1CCN(Cc2ccccc2)CC1 [Compound I-20, (Z)-N-(4-benzylpiperazin-1-yl)-3-(3-(3,5-bis(trifluoromethyl)phenyl)-1H-1,2,4-triazol-1-yl) acrylamide]	≤ 1 µM	
O=C(/C=C\n1cnc(-c2cc(C(F)(F)F)cc(C(F)(F)F)c2)n1)NNc1cccnc1 [Compound I-13, (Z)-3-(3-(3,5-bis(trifluoromethyl)phenyl)-1H-1,2,4-triazol-1-yl)-N′-(pyridin-3-yl)acrylohydrazide]	≤ 1 µM	
Cc1cc(NNC(=O)/C=C\n2cnc(-c3cc(C(F)(F)F)cc(C(F)(F)F)c3)n2)nc(C)n1 [Compound I-17, (Z)-3-(3-(3,5-bis(trifluoromethyl)phenyl)-1H-1,2,4-triazol-1-yl)-N′-(2,6-dimethylpyrimidin-4-yl)acrylohydrazide]	≤ 1 µM	
O=C(/C=C\n1cnc(-c2cc(C(F)(F)F)cc(C(F)(F)F)c2)n1)NN1CCCC1 [Compound I-6, (Z)-3-(3-(3,5-bis(trifluoromethyl)phenyl)-1H-1,2,4-triazol-1-yl)-N-(pyrrolidin-1-yl)acrylamide]	≤ 1 µM	
O=C(/C=C/n1cnc(-c2cc(C(F)(F)F)cc(C(F)(F)F)c2)n1)NNc1cnccn1 [Compound I-18, (E)-3-(3-(3,5-bis(trifluoromethyl)phenyl)-1H-1,2,4-triazol-1-yl)-N′-(pyrazin-2-yl) acrylohydrazide]	≤ 1 µM	AUC(0-inf) [3]: 7140 ng·h/mL
O=C(/C=C\n1cnc(-c2cc(C(F)(F)F)cc(C(F)(F)F)c2)n1)NNC1CC1 [Compound I-25, (Z)-3-(3-(3,5-bis(trifluoromethyl)phenyl)-1H-1,2,4-triazol-1-yl)-N′-cyclopropylacrylohydrazide]	≤ 1 µM	
CN(NC(=O)/C=C\n1cnc(-c2cc(C(F)(F)F)cc(C(F)(F)F)c2)n1)c1cccnc1 [Compound I-11, (Z)-3-(3-(3,5-bis(trifluoromethyl)phenyl)-1H-1,2,4-triazol-1-yl)-N′-methyl-N′-(pyridin-3-yl)acrylohydrazide]	≤ 1 µM	
Cc1ccc(NNC(=O)/C=C\n2cnc(-c3cc(C(F)(F)F)cc(C(F)(F)F)c3)n2)nc1 [Compound I-10, (Z)-3-(3-(3,5-bis(trifluoromethyl)phenyl)-1H-1,2,4-triazol-1-yl)-N′-(5-methylpyridin-2-yl)acrylohydrazide]	≤ 1 µM	AUC(0-inf) [3]: 4170 ng·h/mL; Kp at 2 h [4]: 0.77
O=C(/C=C\n1cnc(-c2cc(C(F)(F)F)cc(C(F)(F)F)c2)n1)NNC1CCS(=O)(=O)C1 (centres unmarked) [Compound I-15, (Z)-3-(3-(3,5-bis(trifluoromethyl)phenyl)-1H-1,2,4-triazol-1-yl)-N′-(1,1-dioxotetrahydrothiophen-3yl)acrylohydrazide]	≤ 1 µM	
O=C(/C=C\n1cnc(-c2cc(C(F)(F)F)cc(C(F)(F)F)c2)n1)NN1CCOCC1 [Compound I-22, (Z)-3-(3-(3,5-bis(trifluoromethyl)phenyl)-1H-1,2,4-triazol-1-yl)-N-morpholinoacrylamide]	≤ 1 µM	
COc1cc(-c2ncn(/C=C\C(=O)OC(C)C)n2)cc(C(F)(F)F)c1 [Compound X-1, reference compound]	≤ 1 µM	IC50 [1]: ≤ 1 µM; AUCInf ([3]; 10 mg/kg): below the limit of detection
Cc1cccnc1N(C)NC(=O)/C=C\n1cnc(-c2cc(C(F)(F)F)cc(C(F)(F)F)c2)n1 [Compound I-9, (Z)-3-(3-(3,5-bis(trifluoromethyl)phenyl)-1H-1,2,4-triazol-1-yl)-N′-methyl-N′-(3-methylpyridin-2-yl)acrylohydrazide]	≤ 1 µM	
O=C(/C=C\n1cnc(-c2cc(C(F)(F)F)cc(C(F)(F)F)c2)n1)NN1CCCCCC1 [Compound I-16, (Z)—N-(azepan-1-yl)-3-(3-(3,5-bis(trifluoromethyl)phenyl)-1H-1,2,4-triazol-1-yl)acrylamide]	≤ 1 µM	
O=C(/C=C\n1cnc(-c2cc(C(F)(F)F)cc(C(F)(F)F)c2)n1)N1CC(F)(F)C1 [Compound X-3, reference compound]	≤ 1 µM	IC50 [1]: ≤ 1 µM; B:P [4]: 5.0
O=C(/C=C\n1cnc(-c2cc(C(F)(F)F)cc(C(F)(F)F)c2)n1)NNc1cnc2ccccc2n1 [Compound I-14, (Z)-3-(3-(3,5-bis(trifluoromethyl)phenyl)-1H-1,2,4-triazol-1-yl)-N′-(quinoxalin-2-yl)acrylohydrazide]	≤ 1 µM	
